Laboratory results from patent publication EP3442594B1, “BLOCK COPOLYMER FOR […] RESISTANCE OF TUMOURS TO CHEMOTHERAPY, ITS POLYMER-DRUG CONJUGATE, PHARMACEUTICAL COMPOSITION CONTAINING THEM, METHOD OF PREPARATION AND USE THEREOF” (Ustav makromolekularni chemie AV CR, v.v.i., priority 2016, dated 2017).
≈ marks a conversion by molar mass, not a printed value. Where “and” joins values, the source holds several entries; their conditions need not be identical. Identical values can stand only once. Like-named read-outs stand apart in the source and are kept apart here.

Key:
[1] = system: 4T1 - mammary carcinoma cell line; assay: Cytostatic activity, 3H-thymidine incorporation; type: cell-based, murine; conditions: Mus musculus; 4T1, 72 hours
Protocol: (§1) These were murine tumour cell lines (CT26 - colon carcinoma cell line, 4T1 - mammary carcinoma cell line, both originating from the BALB/c inbred strain of mice, followed by EL4.IL-2-line of T-cell lymphoma originating from the C57BL/6 inbred strain of mice) and FaDu - a human line of squamous cell carcinoma of the head and neck. […] The cell proliferation was then determined using the standard method of incorporating ^3H-thymidine which was added for the last 6 hours of culture. Subsequently, the cultures were processed using the Tomtec Mach III harvester and, after drying, the radioactivity of samples obtained was measured by the beta-scintillation counter Microbeta Trilux (Wallac) using a solid scintillant (MeltiLex; Perkin Elmer). […] The activity of conjugates was determined by 3H-thymidine incorporation after 72 hours of incubation of cells with various concentrations of drugs. The IC50 values are given in ng of doxorubicin/mL and were calculated as a mean of several independent determinations.

[2] = system: EL4.IL-2-line of T-cell lymphoma; assay: Cytostatic activity, 3H-thymidine incorporation; type: cell-based, murine; conditions: Mus musculus, EL4.IL-2, 72 hours
Protocol: as §1

[3] = system: CT26 - colon carcinoma cell line; assay: Cytostatic activity, 3H-thymidine incorporation; type: cell-based, murine
Protocol: as §1

[4] = system: murine T-cell lymphoma EL4; assay: In vivo antitumour effect in the treatment of EL4 lymphoma; parameters: species or system C57BL/6 mice
Protocol: (§2) The in vivo antitumour effect of micellar diblock polymer conjugate of Example 28 carrying doxorubicin (DOX-DB) was studied on a model of murine T-cell lymphoma EL4 in the C57BL/6 inbred strains of mice. The conjugate was administered to mice intravenously (i.v.) in a single dose equivalent to 7.5 mg of doxorubicin/kg. The drug was injected 8 days after subcutaneous administration of 1 x 10^5 EL4 tumour cells, at a time when tumours are developed and the tumour bed size is about 6-8 mm in diameter. […] Further, the free doxorubicin (DOX) was used for treatment, injected at a total dose of 10 mg/kg, which, due to the different pharmacokinetics of a low molecular weight drug and the associated danger of high systemic toxicity, was injected in two partial intravenous doses on the 8th and 12th day after transplantation of tumour cells (each dose of 5 mg of doxorubicin).
(§3) Days mean the death of animals after administration of tumour cells (1 x 10^5 cells EL4 s.c. on day 0), LTS ("long term survivor") means long-term surviving mice without evidence of tumour (at least until day 70 after administration of tumour cells). The last line contains information about the median survival in groups.

[5] = system: FaDu - a human line of squamous cell carcinoma of the head and neck; assay: Cytostatic activity, 3H-thymidine incorporation; type: cell-based; conditions: 72 hours
Protocol: as §1

NB3/DOX = assay: IC50 of drugs with/without block copolymer, AlamarBlue method; type: cell-based; conditions: cells pre-incubated 1 hour with/without block copolymer at 250 µg/mL
Protocol: (§4) In in vitro experiments the cells were first incubated for 1 hour with/without a diblock or triblock copolymer at a concentration 250 µg/mL and thereto were added the above mentioned drugs in a concentration series. After 72 hours of incubation the metabolic activity of cells was determined using the AlamarBlue method and from it the IC50 of individual drugs. An experiment was performed with non-degradable diblock polymers PHPMA-PPO (Example 20) and triblock polymers (PHPMA)2-PPO (Example 21) as a control.

NB4/DOX = assay: as above; type: cell-based; conditions: cells pre-incubated 1 hour with/without block copolymer at 250 µg/mL
Protocol: as §4

[6] = system: murine T-cell lymphoma EL4; type: in vivo
Protocol: as §2, §3

[7] = Release of docetaxel or its derivative from polymer conjugates in phosphate buffers (HPLC); type: physicochemical; conditions: pH 7.4 compared with pH 5.0, 37°C, conjugate 5 mg/mL
Protocol: At predetermined time intervals 200 µL of incubation solution was collected and after the extraction of released drugs and derivatives thereof into chloroform their amounts were determined using an HPLC system (Shimadzu HPLC system equipped with a column with a reverse phase Chromolith Performance RP-18e (100 x 4.6 mm) and UV-VIS detector Shimadzu SPD-10AVvp (230 nm), eluent water-acetonitrile with gradient from 50 to 100 vol% of acetonitrile, flow rate of 0.5 mL x min^-1).

[8] = read-out: IC50 after 72 hours of incubation

COc1cccc2c1C(=O)c1c(O)c3c(c(O)c1C2=O)C[C@@](O)(C(=O)CO)C[C@@H]3O[C@H]1C[C@H](N)[C@H](O)[C@H](C)O1 [DOX, doxorubicin]
IC50 [1]: 0.0143 µg/mL (≈ 0.0263 µM)
IC50 [2]: 0.0122 µg/mL (≈ 0.0224 µM)
IC50 ([3]; Mus musculus, CT26, 72 hours): 0.0425 µg/mL (≈ 0.0782 µM)
complete cure ([4]; 2 x 5 mg DOX/kg i.v.): none
median survival ([4]; 2 x 5 mg DOX/kg i.v.): 40.5 days
tumour growth in comparison to untreated controls ([4]; 2 x 5 mg DOX/kg i.v.): the average tumour growth was slower than in the group of untreated mice, but showed a steady progression
Survival: day of death of individual animals after administration of tumour cells ([4]; 2 x 5 mg DOX/kg i.v. on days 8 and 12): 35 Days and 38 Days and 39 Days and 42 Days and 53 Days (2×)
IC50 [5]: 0.0048 µg/mL (≈ 0.00883 µM)
IC50 after 72 hours of incubation (NB3/DOX): 0.168 ± 0.005 µg/mL
IC50 (NB3/DOX; [8]): 0.215 ± 0.004 µg/mL (≈ 0.396 µM)
IC50 (NB4/DOX; [8]): 2.61 ± 0.17 µg/mL (≈ 4.8 µM)

[raft-poly(HPMA-co-MA-AH-NHN=DOX)]-GFLG-PPO-NH2 [DB-DOX]
decrease of the cytostatic effect of doxorubicin by binding the drug to a diblock carrier [3]: 2.6 times
IC50 after 72 hours of incubation (NB3/DOX): 0.919 ± 0.020 µg/mL
IC50 after 72 hours of incubation (NB4/DOX): 7.07 ± 0.11 µg/mL
first mouse with complete tumour regression, time after drug administration ([6]; 1 x 7.5 mg DOX eq./kg): eighth day
median survival ([6]; 1 x 7.5 mg DOX eq./kg i.v.): 47.5 days
tumour growth in comparison to untreated controls ([6]; 1 x 7.5 mg DOX eq./kg i.v.): tumour growth stagnation within three days and a significant reduction in growth between the third and sixth day after administration of the drug
Survival: day of death of individual animals after administration of tumour cells ([6]; 1 x 7.5 mg DOX eq./kg i.v. on day 8): 37 Days and 39 Days and 42 Days (2×) and 60 Days and LTS (LTS ("long term survivor") means long-term surviving mice without evidence of tumour (at least until day 70 after administration of tumour cells)) (3×)
complete cure (share of subjects) ([6]; 1 x 7.5 mg DOX eq./kg i.v., 8 mice): 37.5%
mice without apparent tumour at the place of administration ([6]; 13 days after drug administration, 1 x 7.5 mg DOX eq./kg): 4 mice (out of 8)
resistance against tumour after retransplantation of cured mice (LTS) ([6]; retransplanted 119 days after the first tumour, no treatment): of these three mice two were resistant

[raft-poly(HPMA-co-MA-AH-NHN=DTX-LEV)]-GFLG-PPO-NH2 [Example 28B]
release of drug DTX (or its derivative) [7]: released significantly slower
